Results: the RepoRT retention time repository

Experiment: HILIC, HILICON iHILIC-(P) Classic, HILIC, PEEK, 100 × 2.1 mm, 5 µm, 40 °C, 0.12 mL/min, estimated dead time 1.8 min; A: water + 20 mM ammonium carbonate + 5 µM medronic acid; B: 10% water + 90% acetonitrile + 2 mM ammonium carbonate + 0.5 µM medronic acid; gradient (min/%B) 0/95 18/55 19/20 22/20 22.5/95 24/95 26/95
Details: stereoisomer not certain

Row | LC retention time [min] | Structure (SMILES)
1 | 12.7 | O=C(O)CCC(=O)C(=O)O [2-Oxoglutaric acid]
2 | 12.2 | Nc1ncnc2c1ncn2C1OC(COP(=O)(O)OP(=O)(O)O)C(O)C1O (stereo not drawn) [ADP]
3 | 9.81 | Nc1ncnc2c1ncn2C1OC(COP(=O)(O)O)C(O)C1O (stereo not drawn) [AMP]
4 | 13.7 | Nc1ncnc2c1ncn2C1OC(COP(=O)(O)OP(=O)(O)OP(=O)(O)O)C(O)C1O (stereo not drawn) [ATP]
5 | 10 | CC(=O)SCCNC(=O)CCNC(=O)C(O)C(C)(C)COP(=O)(O)OP(=O)(O)OCC1OC(n2cnc3c(N)ncnc32)C(O)C1OP(=O)(O)O (stereo not drawn) [Acetyl-CoA]
6 | 4.33 | Nc1ncnc2c1ncn2C1OC(CO)C(O)C1O (stereo not drawn) [Adenosine]
7 | 18.9 | NC(N)=NCCCC(N)C(=O)O (stereo not drawn) [Arginine]
8 | 9.93 | NC(=O)CC(N)C(=O)O (stereo not drawn) [Asparagine]
9 | 15 | O=C(O)CC(O)(CC(=O)O)C(=O)O [Citric acid]
10 | 11.4 | CC(C)(COP(=O)(O)OP(=O)(O)OCC1OC(n2cnc3c(N)ncnc32)C(O)C1OP(=O)(O)O)C(O)C(=O)NCCC(=O)NCCS (stereo not drawn) [CoenzymeA]
11 | 12.5 | O=C(CO)C(O)C(O)C(O)COP(=O)(O)O (stereo not drawn) [Fructose 6-phosphate]
12 | 15.9 | O=P(O)(O)OCC1OC(O)(COP(=O)(O)O)C(O)C1O (stereo not drawn) [Fructose-1,6-bisphosphate]
13 | 12 | O=C(O)C=CC(=O)O [Fumaric Acid]
14 | 9.93 | NC(CCC(=O)NC(CS)C(=O)NCC(=O)O)C(=O)O (stereo not drawn) [GSH]
15 | 14.8 | NC(CCC(=O)NC(CSSCC(NC(=O)CCC(N)C(=O)O)C(=O)NCC(=O)O)C(=O)NCC(=O)O)C(=O)O (stereo not drawn) [GSSG]
16 | 12.5 | O=P(O)(O)OC1OC(CO)C(O)C(O)C1O (stereo not drawn) [Glucose-1-phosphate]
17 | 13.5 | O=P(O)(O)OCC1OC(O)C(O)C(O)C1O (stereo not drawn) [Glucose-6-phosphate]

Row | LC retention time [min] | Structure (SMILES)
18 | 9.95 | NC(CCC(=O)O)C(=O)O (stereo not drawn) [Glutamic acid]
19 | 9.95 | NC(=O)CCC(N)C(=O)O (stereo not drawn) [Glutamine]
20 | 11 | O=P(O)(O)OCC(O)CO (stereo not drawn) [Glycerol-3-phosphate]
21 | 15.7 | O=C(O)CC(C(=O)O)C(O)C(=O)O (stereo not drawn) [Isocitric acid]
22 | 3.31 | CC(O)C(=O)O (stereo not drawn) [Lactic Acid]
23 | 18.5 | NCCCCC(N)C(=O)O (stereo not drawn) [Lysine]
24 | 11.9 | O=C(O)CC(O)C(=O)O (stereo not drawn) [Malic Acid]
25 | 9.3 | NC(=O)C1=CN(C2OC(COP(=O)(O)OP(=O)(O)OCC3OC(n4cnc5c(N)ncnc54)C(O)C3O)C(O)C2O)C=CC1 (stereo not drawn) [NADH]
26 | 15.5 | NC(=O)C1=CN(C2OC(COP(=O)(O)OP(=O)(O)OCC3OC(n4cnc5c(N)ncnc54)C(OP(=O)(O)O)C3O)C(O)C2O)C=CC1 (stereo not drawn) [NADPH]
27 | 14.3 | NC(=O)c1ccc[n+](C2OC(COP(=O)(O)OP(=O)(O)OCC3OC(n4cnc5c(N)ncnc54)C(OP(=O)(O)O)C3O)C(O)C2O)c1 (stereo not drawn) [NADP]
28 | 10.4 | NC(=O)c1ccc[n+](C2OC(COP(=O)(O)OP(=O)(O)OCC3OC(n4cnc5c(N)ncnc54)C(O)C3O)C(O)C2O)c1 (stereo not drawn) [NAD]
29 | 14.5 | C=C(OP(=O)(O)O)C(=O)O [PEP]
30 | 11.3 | O=P(O)(O)OCC1OC(O)C(O)C1O (stereo not drawn) [Pentose-phosphate]
31 | 10.9 | O=C(O)CCC(=O)O [Succinic Acid]
32 | 11.3 | O=C(CO)COP(=O)(O)O [Triose phosphate]
33 | 11.7 | CC(=O)NC1C(OP(=O)(O)OP(=O)(O)OCC2OC(n3ccc(=O)[nH]c3=O)C(O)C2O)OC(CO)C(O)C1O (stereo not drawn) [UDP-GlcNAc]
